How the values were obtained:
Type in all cases: in vivo, human
[1] = system: adult patients with advanced solid tumors or hematological malignancies; assay: Paired ECGs (QTc, heart rate) before and after plitidepsin infusion; conditions: for QTc Pre-infusion / HR Post-Infusion / QTc Post-infusion / HR Pre-Infusion: mean (SD)
Procedure: Selected ECG variables (Bazett’s corrected QT interval (QTc) and heart rate (HR)) were analyzed in patients with paired ECG data (i.e., available before and after plitidepsin infusion, n = 136).
Pharmacokinetic (PK) data available from individual clinical trials (four phase I studies and nine phase II studies; see details in Table 1) and/or simulated data using population PK analyses were correlated with the occurrence of CAEs. In the individual studies, doses ranged from 0.13 to 8.00 mg/m^2, and were administered as 1 h or 24 h infusion weekly, 3 h or 24 h infusion bi-weekly, or 1 h infusion for 5 consecutive days every 3 weeks. To evaluate the potential relationship between blood plitidepsin concentrations and QTc and HR values, a total of 90 patients who had ECGs performed during treatment with plitidepsin and PK data during first infusion were analyzed. The plitidepsin concentration at the time when the ECG had been obtained was calculated using the whole blood plitidepsin concentration at the ECG times in which they were simulated taking the individual Bayesian PK parameters of the final population PK model and considering the real treatment history of each patient. In total, 411 patients and 5585 plitidepsin concentration measurements (including 2900 blood and 2685 plasma concentrations) were pooled in the population PK analysis. An open, 3-compartment disposition model with linear elimination and linear distribution from the central compartment to peripheral compartments was used to describe the PK of plitidepsin in plasma. Between and within subject variabilities were assumed to be log-normally distributed. PK exposure parameters (maximum concentration in plasma (Cmax) and area under the curve (AUC) from day 0 to day 28) and other dose-independent PK parameters (clearance, half-life, etc.) were used to evaluate the relationship between patient PK characteristics and the appearance of CAEs. For the statistical analysis of the relationship between the exposure parameters and the development or not of a CAE, a logistic regression model was used to analyze the incidence of the event.

[2] = Population PK exposure (Cmax, AUC0-28day) by CAE category; conditions: whole blood, simulated, mean (SD)
[3] = system: adult patients with advanced solid tumors or hematological malignancies; assay: Multivariate logistic regression of variables associated with CAEs; conditions: overall multivariate analysis
From the text: To avoid potential bias, candidate variables were explored by univariate analysis regardless of the relationship attributed to the CAE with plitidepsin by the investigators (related, unrelated or unknown). Univariate logistic regression was used to study the relationship between the occurrence of a CAE and categorical and continuous patient and disease characteristics, and other observed toxicities or laboratory abnormalities. Those variables found to be clinically relevant and/or statistically significant (or of borderline significance) in this analysis were further assessed as covariates in a multivariate analysis using logistic regression with stepwise variable selection and multiple correspondence analysis methods.

[4] = All (n = 136 pairs), ECG within 4 h after end of infusion
[5] = Myocardial injury (n = 4 pairs)
[6] = No cardiac event (n = 116 pairs)
[7] = Rhythm abnormalities (n = 18 pairs)
[8] = Other rhythm abnormalities (n = 10)

plitidepsin
QTc Pre-infusion ([1]; All (n = 136 pairs), Bazett's corrected): 426.77 (38.78) msec | HR Post-Infusion [1, 4]: 82.46 (13.17) bpm | QTc Post-infusion [1, 4]: 429.28 (40.25) msec | HR Pre-Infusion ([1]; All (n = 136 pairs)): 79.07 (15.33) bpm | HR Post-Infusion ([1]; Cardiac event (n = 20 pairs)): 80.10 (10.87) bpm | HR Pre-Infusion ([1]; Cardiac event (n = 20 pairs)): 74.05 (13.39) bpm | QTc Post-infusion ([1]; Cardiac event (n = 20 pairs)): 442.60 (32.09) msec | QTc Pre-infusion ([1]; Cardiac event (n = 20 pairs)): 437.75 (28.65) msec | HR Post-Infusion [1, 5]: 77.75 (12.55) bpm | HR Pre-Infusion [1, 5]: 68.75 (10.34) bpm | QTc Post-infusion [1, 5]: 437.50 (15.20) msec | QTc Pre-infusion [1, 5]: 429.00 (29.15) msec | HR Post-Infusion [1, 6]: 82.86 (13.53) bpm | HR Pre-Infusion [1, 6]: 79.92 (15.53) bpm | QTc Post-infusion [1, 6]: 426.98 (41.18) msec | QTc Pre-infusion [1, 6]: 424.88 (40.06) msec | HR Post-Infusion [1, 7]: 80.44 (11.30) bpm | HR Pre-Infusion [1, 7]: 75.44 (13.39) bpm | QTc Post-infusion [1, 7]: 442.67 (33.79) msec | QTc Pre-infusion [1, 7]: 439.44 (29.79) msec | Relationship between whole blood plitidepsin concentrations and QTc interval ([1]; all ECGs during treatment (263 ECGs), simulated concentrations): No apparent relationship | AUC0–28day ([2]; Cardiac Adverse Event (n = 36)): 3236 (2955) h·ng/mL | Cmax ([2]; Cardiac Adverse Event (n = 36)): 61.0 (27.9) ng/mL | Cmax ([2]; Irregular supraventricular tachycardia (n = 12)): 63.7 (34.6) ng/mL | AUC0–28day ([2]; Myocardial Injury (n = 11)): 4077 (3653) h·ng/mL | Cmax ([2]; Myocardial Injury (n = 11)): 69.5 (28.2) ng/mL | Cmax ([2]; Other myocardial injury (n = 4)): 64.7 (30.6) ng/mL | AUC0–28day [2, 8]: 2064 (1449) h·ng/mL | Cmax [2, 8]: 56.8 (26.2) ng/mL | Cmax ([2]; Possible ischemic related (n = 7)): 72.2 (28.8) ng/mL | Cmax ([2]; Regular supraventricular tachycardia (n = 6)): 57.2 (23.1) ng/mL | Cmax ([2]; Rhythm Abnormalities (n = 25)): 61.5 (29.8) ng/mL | OR for CAE: Tumor type, Prostate or pancreatic cancer ([3]; p = 0.0017): 4.217 | OR for CAE: Cardiac risk and relevant concomitant medication at baseline, Presence ([3]; p = 0.0072): 3.034 | OR for CAE: Hypokalemia (worst per patient), Grade ≥ 2 ([3]; p = 0.0095): 3.851 | OR for CAE: Myalgia (at baseline), Presence ([3]; p = 0.0140): 5.015 | OR for CAE: Hemoglobin (worst per patient), <10 g/dL ([3]; p = 0.0208): 2.195

From paper PMC3131558, “Plitidepsin Has a Safe Cardiac Profile: A Comprehensive Analysis” (Marine Drugs, 2011)
